Results reported in the OligoGym collection.
After the bases stand the sugars from the 5' end (letter, count) and the backbone: PS all phosphorothioate, else s phosphorothioate and o phosphodiester by linkage. Methylation of C is not given here. l = locked nucleic acid (LNA); d = 2'-deoxy (DNA)

Target: SNHG14
Details: ASO
[1] = Mouse Primary Neuronal Cell, 0.005 µM

Sequence | target mRNA inhibition (Human Neuronal Cell, 0.2 µM) [%] | target mRNA inhibition (Human Neuronal Cell, 1 µM) [%] | target mRNA inhibition (Human Neuronal Cell, 7.5 µM) [%] | other results
CACTTAGAATATCCCT (sugars l2 d10 l4, PS) | 43 | 35 |  | 
TTATAGCCATTCTATCT (sugars lddldddddddldldll, PS) |  |  | 25 | 
TTGATTCAATTCCCTTA (sugars l2 d11 l4, PS) | 60 | 69 |  | 
TTGATTCCACCATTAA (sugars l3 d10 l3, PS) | 49 | 28 |  | 
TTATAGCCATTCTATCT (sugars l2 d9 l1 d2 l3, PS) |  |  | 53 | 
CCAAGATAATCATCAT (sugars l3 d10 l3, PS) | 41 | 42 |  | 
TCCATTTATTTCCATTTATT (sugars llddlddddddddldlddll, PS) |  |  | 59 | 
CTTTGACATTCCATCTC (sugars l2 d11 l4, PS) | 52 | 59 |  | 
ATCTTTGACATTCCATC (sugars l2 d11 l4, PS) | 54 | 61 |  | 
TTATTCTGACACACTT (sugars l3 d10 l3, PS) | 35 | 35 |  | 
AAATCTCAACTACCATTTTT (sugars ldldddldddddddllldll, PS) |  |  | 14 | 
GCTAATTTAAATTTCC (sugars l4 d10 l2, PS) | 49 | 67 |  | 
AGTTCTACTATACTTTC (sugars l3 d8 l2 d2 l2, PS) |  |  | 12 | 
TTGATTCAATTCCCTTA (sugars llddldddddddlddll, PS) |  |  | 67 | 
CCTAAAGATCCCATCAC (sugars l2 d12 l3, PS) | 34 | 51 |  | 
GATCATTCTCAACAATT (sugars l5 d6 l1 d1 l4, PS) |  |  | 0 | 
TTATAGCCATTCTATCT (sugars l3 d12 l2, PS) |  |  | 59 | 
AAATCTCAACTACCATTTTT (sugars lldddllddddddlddllll, PS) |  |  | 29 | 
ACATCTCATACTTGCT (sugars l2 d10 l4, PS) | -10 | -5 |  | target mRNA inhibition (Human Neuronal Cell, 5 µM): 8%; target mRNA inhibition [1]: 96%
CAGCTTTTAACCAGAGTG (sugars l3 d13 l2, PS) |  |  | 76 | 
GTTTCCATCTACTATTAA (sugars llddldddddddldldll, PS) |  |  | 31 | 
CTTGCATTTCTAATTAC (sugars l3 d11 l3, PS) | 38 | 35 |  | 

Sequence | target mRNA inhibition (Human Neuronal Cell, 0.2 µM) [%] | target mRNA inhibition (Human Neuronal Cell, 1 µM) [%] | target mRNA inhibition (Human Neuronal Cell, 7.5 µM) [%] | other results
CTTTTAACCAGAGTGGC (sugars l4 d11 l2, PS) |  |  | 62 | 
TTGATTCAATTCCCTTA (sugars l2 d10 l1 d2 l2, PS) |  |  | 69 | 
GCATTCAACCCTAATCA (sugars l3 d12 l2, PS) | 39 | 50 |  | 
AGTTCTACTATACTTTC (sugars l1 d10 l6, PS) |  |  | 47 | 
TATAAGCTTACCTCAT (sugars l3 d10 l3, PS) | 50 | 66 |  | 
TTACCTACATCTCATACT (sugars l2 d14 l2, PS) | 5 | 14 |  | target mRNA inhibition (Human Neuronal Cell, 5 µM): 17%; target mRNA inhibition [1]: 77.1%
GCTTTTAACCAGAGT (sugars l3 d9 l3, PS) |  |  | 73 | 
CTCAGACATCTCAATA (sugars l4 d10 l2, PS) | 45 | 43 |  | 
TATACCTTTCTTTAACCCTT (sugars lddddldddddddddlddll, PS) |  |  | 61 | 
AATTATTTATACACCATCAT (sugars llddldddddddddldllll, PS) |  |  | 70 | 
ATCTTCAAGAATTCTC (sugars l3 d10 l3, PS) | 44 | 48 |  | 
TTTATACCTTTCTTTAACCC (sugars l1 d13 l1 d3 l2, PS) |  |  | 57 | 
CAAGTTTCCTATATTC (sugars l4 d10 l2, PS) | 62 | 64 |  | 
ATTTATTTCCATTTATTTTC (sugars ldddlldddddddldddlll, PS) |  |  | 64 | 
GTTTATACCCTTTCCAAT (sugars l1 d1 l1 d13 l2, PS) |  |  | 56 | 
CTGTTTATACCCTTTCCA (sugars l1 d15 l2, PS) |  |  | 47 | 
ATTGATTCAATTCCCTT (sugars l2 d11 l4, PS) | 62 | 69 |  | 
CCATTTATTTCCATTTATTT (sugars ldlddlddddddddlddlll, PS) |  |  | 59 | 
TTATACCTTTCTTTAACCCT (sugars ldlddlddddddddddddll, PS) |  |  | 56 | 
TTTTATACCTTTCTTTAACC (sugars ldlddddddddddlddllll, PS) |  |  | 64 | 
TAAAATTATTTATACACCA (sugars ldddllddddddllddlll, PS) |  |  | 55 | 
CACTAGTACTCTTATT (sugars l4 d10 l2, PS) | 43 | 38 |  | 
